Numbered stars: 1 amine (or outer) side, 2 acyl side, 3 side chain; on linkers, the order of the positions; unused ones are H or OH. Square brackets hold non-standard residues; d marks the D form. Side chains are listed from the residue outwards. Peptide text beside a SMILES is read from it. * marks the point of attachment. DOTA = O=C(O)CN1CCN(CC(=O)O)CCN(CC(=O)*)CCN(CC(=O)O)CC1; d(γGlu) = O=C(O)[C@@H](CCC(=O)[*:2])N[*:1]; 1Nal = N[C@@H](Cc1cccc2ccccc12)C(=O)O; NMeNle = CCCC[C@H](NC)C(=O)O; PEG4 = NCCOCCOCCOCCOCCC(=O)O
Columns and labels:
[1] = type: physicochemical; details: pH 7.4
Procedure: The hydrophilicity of [^68Ga]Ga-DOTA-CCK2R-dimer and [^68Ga]Ga-DOTA-CCK-66 was assessed by determining their partition coefficients (Log D7.4) in a phosphate-buffered saline (PBS; pH 7.4)/n-octanol (1:1, v/v) system. Briefly, ~37 kBq of each radiotracer was mixed with 2 mL of the biphasic system, vortexed for 5 min, and centrifuged at 15,000 × g for 5 min. The radioactivity in 100 μL aliquots of each phase was quantified using a γ-counter (n = 5).

in vivo [2] = experiment: in vivo; parameters: species or system BALB/c nude mice; details: female, BALB/c nude, mouse, iv, total radioactivity
Procedure: For the micro-positron emission tomography/computed tomography (microPET/CT) imaging study, BALB/c nude mice bearing AR42J tumors (detailed in Supplementary Methods Section S3: Mouse Models) were intravenously injected with 3.7 MBq of [^68Ga]Ga-DOTA-CCK2R-dimer (≈ 120 pmol) or [^68Ga]Ga-DOTA-CCK-66 (≈ 210 pmol) (dissolved in 200 μL of saline; n = 3/group), and microPET/CT imaging was performed at 30, 60, and 120 min post-injection. The mice were anesthetized via inhalation of an isoflurane mixture approximately 5 min before each PET/CT acquisition began. To confirm tumor-specific radiopharmaceutical uptake, blocking experiments were conducted at the 1-h time point of imaging by coinjecting the mice with the radiopharmaceutical and a 400-fold excess of the lead compound.
(§1) All animal studies were approved by the Ethics Committee of Fudan University
(§2) Shanghai Cancer Center (No. FUSCC-IACUC- S2023- 0003). Five-week-old female
(§3) BALB/c nude mice were purchased from Shanghai SLAC Laboratory Animal
(§4) Company. To establish cell-derived xenograft (CDX) models, 1 × 10⁶ AR42J cells
(§5) (100 μL) were subcutaneously inoculated into the right shoulder of each mouse. […]

in vivo [3] = experiment: in vivo; parameters: species or system BALB/c nude mice; details: mouse; for tissue to tissue ratio at 0.5 h / tissue to tissue ratio at 1 h / tissue to tissue ratio at 2 h: female, BALB/c nude, iv, 3.7 MBq, total radioactivity
Procedure: To complement the imaging studies, biodistribution experiments were performed. AR42J tumor-bearing mice were intravenously injected with 3.7 MBq of [^68Ga]Ga-DOTA-CCK2R-dimer (≈ 120 pmol) or [^68Ga]Ga-DOTA-CCK-66 (≈ 210 pmol) (dissolved in 200 μL of saline; n = 3/group). The mice were sacrificed at 30, 60, and 120 min post-injection, and the tissues of interest were excised, weighed, and analyzed for radioactivity using a γ-counter. For blocking studies, a 400-fold excess of the lead compound was co-administered, and the mice were sacrificed at 1 h post-injection.
as §1, §2, §3, §4, §5

[4] = Tumor-to-Large intestine ratio (T/B)
[5] = Tumor-to-Small intestine ratio (T/B)

In the case of CCCC[C@@H](C(=O)N[C@@H](CC(=O)O)C(=O)N[C@@H](Cc1cccc2ccccc12)C(N)=O)N(C)C(=O)[C@H](Cc1c[nH]c2ccccc12)NC(=O)CCOCCOCCOCCOCCNC(=O)CC[C@@H](NC(=O)CC[C@H](NC(=O)CN1CCN(CC(=O)O)CCN(CC(=O)O)CCN(CC(=O)O)CC1)C(=O)N[C@H](CCC(=O)NCCOCCOCCOCCOCCC(=O)N[C@@H](Cc1c[nH]c2ccccc12)C(=O)N(C)[C@@H](CCCC)C(=O)N[C@@H](CC(=O)O)C(=O)N[C@@H](Cc1cccc2ccccc12)C(N)=O)C(=O)O)C(=O)O [[68Ga]Ga-DOTA-CCK2R-dimer, metal not drawn] ({DOTA}-E([d(γGlu)-PEG4-Trp-NMeNle-Asp-1Nal-NH2])[d(γGlu)][PEG4]W[NMeNle]D[1Nal]-NH2), the logD [1] is reported as -3.01 ± 0.05, the tissue uptake at 0.5 h (in vivo [2]; 3.7 MBq) is reported as 22.6 ± 0.32 %ID/g and the tissue uptake at 1 h (in vivo [2]; 3.7 MBq) is reported as 23.9 ± 2.12 %ID/g. The tissue uptake at 2 h (in vivo [2]; 3.7 MBq) was 26.1 ± 6.21 %ID/g, the tissue uptake at 1 h (in vivo [2]) was 10.9 ± 1.73 %ID/g and the tissue to tissue ratio at 0.5 h (in vivo [3]; Tumor-to-Bladder ratio (T/B)) was 7.42 ± 4.09. The tissue to tissue ratio at 1 h (in vivo [3]; Tumor-to-Bladder ratio (T/B)) was 8.41 ± 1.6, the tissue to tissue ratio at 2 h (in vivo [3]; Tumor-to-Bladder ratio (T/B)) was 40.8 ± 16.9 and the tissue to tissue ratio at 0.5 h (in vivo [3]; Tumor-to-Blood ratio (T/B)) was 3.01 ± 1.29. It also gave a tissue to tissue ratio at 1 h (in vivo [3]; Tumor-to-Blood ratio (T/B)) of 6.8 ± 4.41, a tissue to tissue ratio at 2 h (in vivo [3]; Tumor-to-Blood ratio (T/B)) of 21.6 ± 9.41 and a tissue to tissue ratio at 0.5 h (in vivo [3]; Tumor-to-Bone ratio (T/B)) of 19.2 ± 4.91. It also gave a tissue to tissue ratio at 1 h (in vivo [3]; Tumor-to-Bone ratio (T/B)) of 18.8 ± 5.04, a tissue to tissue ratio at 2 h (in vivo [3]; Tumor-to-Bone ratio (T/B)) of 142 ± 25 and a tissue to tissue ratio at 0.5 h (in vivo [3]; Tumor-to-Brain ratio (T/B)) of 39.7 ± 24.6. It also gave a tissue to tissue ratio at 1 h (in vivo [3]; Tumor-to-Brain ratio (T/B)) of 61.8 ± 7.46, a tissue to tissue ratio at 2 h (in vivo [3]; Tumor-to-Brain ratio (T/B)) of 154 ± 17.5 and a tissue to tissue ratio at 0.5 h (in vivo [3]; Tumor-to-Heart ratio (T/B)) of 5.23 ± 2.91. It also gave a tissue to tissue ratio at 1 h (in vivo [3]; Tumor-to-Heart ratio (T/B)) of 8.18 ± 0.91, a tissue to tissue ratio at 2 h (in vivo [3]; Tumor-to-Heart ratio (T/B)) of 18.5 ± 3.74 and a tissue to tissue ratio at 0.5 h (in vivo [3]; Tumor-to-Kidney ratio (T/B)) of 1.66 ± 1.37. The tissue to tissue ratio at 1 h (in vivo [3]; Tumor-to-Kidney ratio (T/B)) was 1.15 ± 0.15, the tissue to tissue ratio at 2 h (in vivo [3]; Tumor-to-Kidney ratio (T/B)) was 1.62 ± 0.29 and the tissue to tissue ratio at 0.5 h (in vivo [3]; [4]) was 8.98 ± 3.85. The tissue to tissue ratio at 1 h (in vivo [3]; [4]) was 10.5 ± 1.55, the tissue to tissue ratio at 2 h (in vivo [3]; [4]) was 40.2 ± 29.4 and the tissue to tissue ratio at 0.5 h (in vivo [3]; Tumor-to-Liver ratio (T/B)) was 2.07 ± 1.51. It also gave a tissue to tissue ratio at 1 h (in vivo [3]; Tumor-to-Liver ratio (T/B)) of 3.05 ± 0.56, a tissue to tissue ratio at 2 h (in vivo [3]; Tumor-to-Liver ratio (T/B)) of 11.9 ± 4.6 and a tissue to tissue ratio at 0.5 h (in vivo [3]; Tumor-to-Lung ratio (T/B)) of 3.34 ± 2.07. For the same molecule, the tissue to tissue ratio at 1 h (in vivo [3]; Tumor-to-Lung ratio (T/B)) was 5.56 ± 2.82, the tissue to tissue ratio at 2 h (in vivo [3]; Tumor-to-Lung ratio (T/B)) was 19.7 ± 2.99 and the tissue to tissue ratio at 0.5 h (in vivo [3]; Tumor-to-Muscle ratio (T/M)) was 11.8 ± 5.75. For the same molecule, the tissue to tissue ratio at 1 h (in vivo [3]; Tumor-to-Muscle ratio (T/M)) was 16.5 ± 2.99, the tissue to tissue ratio at 2 h (in vivo [3]; Tumor-to-Muscle ratio (T/M)) was 33 ± 7.91 and the tissue to tissue ratio at 0.5 h (in vivo [3]; [5]) was 7.72 ± 2.49. It also gave a tissue to tissue ratio at 1 h (in vivo [3]; [5]) of 8.04 ± 2.02, a tissue to tissue ratio at 2 h (in vivo [3]; [5]) of 26 ± 11.9 and a tissue to tissue ratio at 0.5 h (in vivo [3]; Tumor-to-Spleen ratio (T/B)) of 7.04 ± 3.92. The tissue to tissue ratio at 1 h (in vivo [3]; Tumor-to-Spleen ratio (T/B)) was 12.6 ± 2, the tissue to tissue ratio at 2 h (in vivo [3]; Tumor-to-Spleen ratio (T/B)) was 39.4 ± 7.6 and the tissue to tissue ratio at 0.5 h (in vivo [3]; Tumor-to-Stomach ratio (T/B)) was 4.5 ± 3.7. The tissue to tissue ratio at 1 h (in vivo [3]; Tumor-to-Stomach ratio (T/B)) was 5.93 ± 0.89, the tissue to tissue ratio at 2 h (in vivo [3]; Tumor-to-Stomach ratio (T/B)) was 10.5 ± 2.83 and the tissue uptake at 0.5 h (in vivo [3]; Bladder uptake) was 0.97 ± 0.52 %ID/g. It also gave a tissue uptake at 1 h (in vivo [3]; Bladder uptake) of 1.59 ± 0.58 %ID/g, a tissue uptake at 2 h (in vivo [3]; Bladder uptake) of 0.53 ± 0.15 %ID/g and a tissue uptake at 0.5 h (in vivo [3]; Blood uptake) of 2.25 ± 1.2 %ID/g. The tissue uptake at 2 h (in vivo [3]; Blood uptake) was 1.56 ± 0.97 %ID/g, the tissue uptake at 0.5 h (in vivo [3]; Bone uptake) was 0.78 ± 0.48 %ID/g and the tissue uptake at 2 h (in vivo [3]; Bone uptake) was 0.22 ± 0.18 %ID/g. It also gave a tissue uptake at 0.5 h (in vivo [3]; Brain uptake) of 0.17 ± 0.07 %ID/g, a tissue uptake at 2 h (in vivo [3]; Brain uptake) of 0.06 ± 0.04 %ID/g and a tissue uptake at 0.5 h (in vivo [3]; Heart uptake) of 1.26 ± 0.44 %ID/g. For the same molecule, the tissue uptake at 2 h (in vivo [3]; Heart uptake) was 1.14 ± 0.39 %ID/g, the tissue uptake at 0.5 h (in vivo [3]; Kidney uptake) was 5.24 ± 3.64 %ID/g and the tissue uptake at 1 h (in vivo [3]; Kidney uptake) was 11.2 ± 1.84 %ID/g. For the same molecule, the tissue uptake at 2 h (in vivo [3]; Kidney uptake) was 12.7 ± 3.23 %ID/g, the tissue uptake at 0.5 h (in vivo [3]; Large intestine uptake) was 1.38 ± 1.37 %ID/g and the tissue uptake at 2 h (in vivo [3]; Large intestine uptake) was 0.67 ± 0.34 %ID/g. It also gave a tissue uptake at 0.5 h (in vivo [3]; Liver uptake) of 3.45 ± 1.37 %ID/g, a tissue uptake at 1 h (in vivo [3]; Liver uptake) of 4.24 ± 0.47 %ID/g and a tissue uptake at 2 h (in vivo [3]; Liver uptake) of 2.01 ± 1.19 %ID/g. For the same molecule, the tissue uptake at 0.5 h (in vivo [3]; Lung uptake) was 2.01 ± 0.71 %ID/g, the tissue uptake at 2 h (in vivo [3]; Lung uptake) was 1.02 ± 0.01 %ID/g and the tissue uptake at 0.5 h (in vivo [3]; Muscle uptake) was 0.57 ± 0.24 %ID/g. For the same molecule, the tissue uptake at 2 h (in vivo [3]; Muscle uptake) was 0.62 ± 0.19 %ID/g, the tissue uptake at 0.5 h (in vivo [3]; Small intestine uptake) was 1.48 ± 0.73 %ID/g and the tissue uptake at 2 h (in vivo [3]; Small intestine uptake) was 0.86 ± 0.32 %ID/g. For the same molecule, the tissue uptake at 0.5 h (in vivo [3]; Spleen uptake) was 0.96 ± 0.4 %ID/g, the tissue uptake at 2 h (in vivo [3]; Spleen uptake) was 0.52 ± 0.05 %ID/g and the tissue uptake at 0.5 h (in vivo [3]; Stomach uptake) was 1.11 ± 0.59 %ID/g. The tissue uptake at 2 h (in vivo [3]; Stomach uptake) was 1.97 ± 0.39 %ID/g, the tissue uptake at 0.5 h (in vivo [3]; Tumor uptake) was 5.81 ± 1.83 %ID/g and the tissue uptake at 2 h (in vivo [3]; Tumor uptake) was 20.2 ± 3.31 %ID/g.
